Tested on: 521955-158-R2-J5-PDC complex spheroid viability
Experiment: Anticancer human tumor 521955-158-R2-J5-PDC patient-derived pancreatic carcinoma cell line growth inhibition [GQUAD]
Settings: for IC50: curve of first compound; for viability, T/C: stronger effect = lower value
Description: DNA G-quadruplex Stabilizer Agents in Combinations in Complex Spheroids
A high-throughput screen of multi-cell type tumor spheroids was designed to identify active combinations of DNA G-quadruplex stabilizer agents and targeted small molecules. Complex spheroids include a stromal component modeled by human endothelial cells (HUVEC) and fibroblasts modeled by human mesenchymal stem cells (MSCs). The concentration ranges selected for each drug and investigational agent were based upon clinically achievable concentrations if the clinical Cmax of the agent was known.
Compounds. The drugs and investigational agents: pidnarulex (CX-5461; NSC782164), APTO-253 (NSC789042), BRACO-19 (NSC847499), peposertib (NSC802822), ceralasertib (NSC780249), elimusertib (NSC800525), camonsertib (NSC841442), AZD-1390 (NSC803789), olaparib (NSC753686), talazoparib (NSC767125), ART-558 (NSC835418), sotorasib (NSC818433), MRTX-1133 (NSC836407), SN-38 (NSC673596), topotecan (NSC609699), etoposide (NSC141540), doxorubicin (NSC123127), gemcitabine (NSC613327), 5-fluorouracil (NSC19893), paclitaxel (NSC125973), vemurafenib (NSC761431), panobinostat (NSC761190), R-306465 (JNJ-16241199; NSC773264), adavosertib (NSC754352), TP-3654 (NSC805149), carboplatin (NSC241240), KSQ-4279 (NSC840948), and staurosporine (NSC755774) were obtained from the National Cancer Institute (NCI) Developmental Therapeutics Program Chemical Repository (34). The FDA-approved anticancer drug set is available from the NCI Developmental Therapeutics Program. […] The stock solutions were prepared in dimethyl sulfoxide (DMSO, Sigma-Aldrich, St. Louis, MO, cat. D2650) at 800-fold the tested concentration and stored at -70 degrees C prior to their use. All drugs and investigational agents were tested over a range starting from a high concentration at or near the clinical Cmax and decreasing in half-log increments. If the clinical Cmax for an agent had not been determined, the highest concentration tested was 10 microM.
2.3 Cell Culture. All cells were maintained in an incubator at 37 degrees C and 5% CO2 with 95% humidity. The PDC lines were cultured according to standard operating procedures established by the NCI PDMR. All PDCs were thawed and cultured in Matrigel-coated flasks prepared with a working solution of 1X Ham's F-12 nutrient mix, without supplementation (Invitrogen, cat. 11765054), 100 U/mL penicillin-streptomycin (Invitrogen, cat. 15140122), and 2.5% Matrigel (Corning Inc., cat. 354248) for the first three passages. The 857933-349-R-J2-PDC line was cultured in 6C/Colon 1B media, which includes advanced DMEM/F-12 (Thermo Fisher Scientific, cat. 12634028), 10 mM HEPES (Thermo Fisher Scientific, cat. 15630080), 1X GlutaMAX supplement (Thermo Fisher Scientific, cat. 35050061), 0.1 mg/mL primocin (InvivoGen, cat. ant-pm-2), 10% defined fetal bovine serum, heat inactivated (HyClone Laboratories Inc., cat. SH30070.03HI), 50% L-WRN conditioned media (ATCC, cat. CRL-3276), 1.25 mM N-Acetyl-L-cysteine (Sigma-Aldrich, cat. A9165), 10 mM nicotinamide (Sigma-Aldrich, cat. N0636), 1X B-27 supplement (Thermo Fisher Scientific, cat. 17504044), 1X N-2 supplement (Thermo Fisher Scientific, cat. 17502048), 10 microM Y-27632 dihydrochloride (Tocris Bioscience, cat. 1254), and 50 ng/mL human EGF recombinant protein (Thermo Fisher Scientific, cat. PHG0311). The 485176-168-R4-J1-PDC line was cultured in Panc media, which includes all 6C/Colon 1B media components plus 100 ng/mL human FGF-10 (Thermo Fisher Scientific, cat. 100-26), 500 nM SB-431542 (Selleckchem, cat. S1067), and gastrin (Tocris, cat. 3006).
[…]
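Also: spheroids exposed to agents for one week before reading.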
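For viability, T/C in this document: 100% = DMSO vehicle control viability.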

With `CC(C)(O)C1CCC(Nc2ccc3ncc(-c4cccc(C(F)(F)F)c4)n3n2)CC1` (configuration not stated) + Cc1cnc(CNC(=O)c2c(=O)c3ccc(N4CCCN(C)CC4)nc3n3c2sc2ccccc23)cn1 the IC50 (second compound 0.0316 µM) was 1680 nM, the IC50 (second compound 0.1 µM) was 1200 nM and the IC50 (second compound 0.316 µM) was < 31.6 nM. For the same molecule, the IC50 (second compound 1 µM) was < 31.6 nM, the IC50 (second compound 3.16 µM) was < 31.6 nM and the IC50 (second compound 10 µM) was < 31.6 nM. It also gave a viability, T/C (second compound 0.0316 µM, first compound 0.0316 µM) of 79%, a viability, T/C (second compound 0.0316 µM, first compound 0.1 µM) of 64.6% and a viability, T/C (second compound 0.0316 µM, first compound 0.316 µM) of 90.4%. For the same molecule, the viability, T/C (second compound 0.0316 µM, first compound 1 µM) was 106%, the viability, T/C (second compound 0.0316 µM, first compound 3.16 µM) was 6.53% and the viability, T/C (second compound 0.0316 µM, first compound 10 µM) was 7.58%. The viability, T/C (second compound 0.1 µM, first compound 0.0316 µM) was 57.4%, the viability, T/C (second compound 0.1 µM, first compound 0.1 µM) was 57.8% and the viability, T/C (second compound 0.1 µM, first compound 0.316 µM) was 56.5%. It also gave a viability, T/C (second compound 0.1 µM, first compound 1 µM) of 58.6%, a viability, T/C (second compound 0.1 µM, first compound 3.16 µM) of 9.19% and a viability, T/C (second compound 0.1 µM, first compound 10 µM) of 8.3%. The viability, T/C (second compound 0.316 µM, first compound 0.0316 µM) was 36.9%, the viability, T/C (second compound 0.316 µM, first compound 0.1 µM) was 30.2% and the viability, T/C (second compound 0.316 µM, first compound 0.316 µM) was 34%. For the same molecule, the viability, T/C (second compound 0.316 µM, first compound 1 µM) was 31.8%, the viability, T/C (second compound 0.316 µM, first compound 3.16 µM) was 7.87% and the viability, T/C (second compound 0.316 µM, first compound 10 µM) was 8.39%. For the same molecule, the viability, T/C (second compound 1 µM, first compound 0.0316 µM) was 18.4%, the viability, T/C (second compound 1 µM, first compound 0.1 µM) was 21.1% and the viability, T/C (second compound 1 µM, first compound 0.316 µM) was 16.7%. It also gave a viability, T/C (second compound 1 µM, first compound 1 µM) of 22.3%, a viability, T/C (second compound 1 µM, first compound 3.16 µM) of 0.25% and a viability, T/C (second compound 1 µM, first compound 10 µM) of 1.56%. It also gave a viability, T/C (second compound 3.16 µM, first compound 0.0316 µM) of 18.8%, a viability, T/C (second compound 3.16 µM, first compound 0.1 µM) of 16.6% and a viability, T/C (second compound 3.16 µM, first compound 0.316 µM) of 17.7%. For the same molecule, the viability, T/C (second compound 3.16 µM, first compound 1 µM) was 15%, the viability, T/C (second compound 3.16 µM, first compound 3.16 µM) was 0.12% and the viability, T/C (second compound 3.16 µM, first compound 10 µM) was 0.12%. The viability, T/C (second compound 10 µM, first compound 0.0316 µM) was 9.8%, the viability, T/C (second compound 10 µM, first compound 0.1 µM) was 14% and the viability, T/C (second compound 10 µM, first compound 0.316 µM) was 10.7%. It also gave a viability, T/C (second compound 10 µM, first compound 1 µM) of 8.62%, a viability, T/C (second compound 10 µM, first compound 3.16 µM) of 0.21% and a viability, T/C (second compound 10 µM, first compound 10 µM) of 0.23%.

From PubChem BioAssay AID2060495 (Molecular Pharmacology Branch, DTP, NCI, 2025)
